This passage reports Activity results from ChEMBL document CHEMBL1149872, “Glycosides from the root of Iodes cirrhosa” (2008).

In this assay the test system is PC-12. Kind of assay: Neuroprotective activity against rat PC12 cells assessed as glutamate-induced neurotoxicity at 10 uM after 24 hrs by MTT assay. Type of assay: functional.
Consider `COc1cc([C@H]2OC[C@H]3[C@@H]2CO[C@@H]3c2cc(OC)c(O[C@@H]3O[C@H](CO)[C@@H](O)[C@H](O)[C@H]3O)c(OC)c2)cc(OC)c1O[C@H]1O[C@@H](CO)[C@H](O)[C@@H](O)[C@@H]1O` [LIRIODENDRTACHIOSIDE], for which the Activity amounted to 20.5%.
In the case of `COc1cc([C@H](O)[C@H](CO)O[C@@H]2O[C@H](CO)[C@@H](O)[C@H](O)[C@H]2O)ccc1O` it was -32.9%; in that of `COc1cc([C@@H](O)[C@H](CO)Oc2ccc(CCCO[C@@H]3O[C@H](CO)[C@@H](O)[C@H](O)[C@H]3O)cc2O)ccc1O`, 36.4%; in that of `COc1cc([C@H](O)[C@H](CO)O[C@@H]2O[C@H](CO)[C@@H](O)[C@H](O)[C@H]2O)cc(OC)c1O`, -28.4%.
In the case of `COc1cc([C@@H](O)[C@H](CO)O[C@@H]2O[C@H](CO)[C@@H](O)[C@H](O)[C@H]2O)ccc1O` it was -46.6%.
